According to patent publication US20110015137A1, “RECA INHIBITORS AND THEIR USES AS MICROBIAL INHIBITORS OR POTENTIATORS OF ANTIBIOTIC ACTIVITY” (Trustees of Boston University, priority 2007, published 2011):
Where a name gives a salt, the structure may show the parent alone.

Each molecule was assayed against T1, E. coli RecA protein (Escherichia coli, UniProt P0A7G6) (assay: High throughput RecA-luciferase assay (ATP remaining after RecA ATPase reaction)). Settings: compounds identified from the screen of more than 22,000 compounds.
T1 construct: purchased Epicentre, Madison, Wis
T1 sequence (P0A7G6 2-353): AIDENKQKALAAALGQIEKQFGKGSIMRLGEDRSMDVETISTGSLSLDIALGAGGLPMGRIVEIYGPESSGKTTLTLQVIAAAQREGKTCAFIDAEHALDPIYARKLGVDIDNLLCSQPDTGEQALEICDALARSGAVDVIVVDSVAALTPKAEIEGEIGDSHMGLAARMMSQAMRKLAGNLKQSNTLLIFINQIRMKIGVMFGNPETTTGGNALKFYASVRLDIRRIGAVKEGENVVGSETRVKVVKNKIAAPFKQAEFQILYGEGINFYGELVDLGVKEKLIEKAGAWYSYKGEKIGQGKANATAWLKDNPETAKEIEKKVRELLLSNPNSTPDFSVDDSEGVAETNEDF
Format: biochemical
Protocol: RecA is a DNA-dependent ATPase (i.e., it catalyzes the reaction adenosine triphosphate [ATP]→adenosine diphosphate [ADP]). An assay was developed for RecA ATPase activity based on detection of the amount of ATP remaining in a reaction mixture following incubation of RecA protein, DNA, and ATP. In an exemplary assay, E. coli RecA protein is incubated in reaction buffer with DNA, ATP, and any test compound or compounds for a measured amount of time. The quantity of ATP remaining after the RecA reaction can be quantitated using a subsequent luciferase assay. The luciferase emits more light as more ATP is available. In some embodiments, the amount of ATP remaining can be compared to controls containing either a known inhibitor (full inhibition control) or no test compound (full activity control). In some embodiments, a positive control (having no DNA added to the well) and negative control (having DNA and no compounds) are run with each screen. Positive responses are based upon the percent reduction of activity of luciferase, with a high percentage representing increased RecA inhibition. Percent inhibition can be calculated according to the following equation: […]
An in vitro RecA-luciferase assay was used to screen for RecA inhibitors. RecA is a DNA-dependent ATPase (i.e., it catalyzes the reaction adenosine triphosphate [ATP]→adenosine diphosphate [ADP]). An assay was developed for RecA ATPase activity based on detection of the amount of ATP remaining in a reaction mixture following incubation of RecA protein, DNA, and ATP. […] The quantity of ATP remaining after the RecA reaction was measured by a subsequent luciferase assay. The luciferase emit more light as more ATP was available.
For high throughput screening, the following reagents were added to each well of a 384 well plate:
The reagents were mixed and incubate at room temperature for about 5 minutes. Then, 5.0 μL of ATP mix, as indicated below, were added to each well.
The mix was incubated at room temperature for about 90-120 minutes. 12.5 μL of Kinase-Glo® plus (Promega) were added to each well and incubated at room temperature for about 10 minutes or more. The luminescence of the reaction was measured.
A positive control (having no DNA added to the well) and negative control (having DNA and no compounds) were run with each screen. Positive responses were based upon the percent reduction of activity of luciferase, with a high percentage representing increased RecA inhibition. Percent inhibition can be calculated according to the following equation: […]

Molecule	activity in the RecA-luciferase screen (in words)
C[n+]1c2cc(N)ccc2cc2ccc(N)cc21.[Cl-] [acriflavinium hydrochloride]	particularly active
Nc1c2ccccc2nc2ccccc12 [acrisorcin]	particularly active
Oc1c(Cl)cc(Cl)cc1Sc1cc(Cl)cc(Cl)c1O [bithionol]	particularly active
COc1cc2cc3c4cc(OC)c(OC)cc4cc[n+]3c(C)c2cc1OC.O.[Cl-] [coralyne chloride hydrate]	particularly active
COc1cc2cc3c4cc(OC)c(OC)cc4cc[n+]3c(C)c2cc1OC.[Cl-] [coralyne chloride]	particularly active
COc1cccc2c1C(=O)c1c(O)c3c(c(O)c1C2=O)C[C@@](O)(C(C)=O)C[C@@H]3O[C@H]1C[C@H](N)[C@H](O)[C@H](C)O1 [daunorubicin hydrochloride]	particularly active
Cc1cc(N)c2ccccc2[n+]1CCCCCCCCCC[n+]1c(C)cc(N)c2ccccc21 [dequalinium chloride]	particularly active
Cc1c2ccncc2c(C)c2c1[nH]c1ccccc12 [ellipticine]	particularly active
Oc1c(Cl)cc(Cl)c(Cl)c1Cc1c(O)c(Cl)cc(Cl)c1Cl [hexachlorophene]	particularly active
CC[n+]1c(-c2ccccc2)c2cc(N)ccc2c2ccc(N)cc21 [homidium bromide]	particularly active
Cl.Cl.O=C1c2c(O)ccc(O)c2C(=O)c2c(NCCNCCO)ccc(NCCNCCO)c21 [mitoxathrone hydrochloride]	particularly active
CC[N+](C)(CC)CCC[n+]1c(-c2ccccc2)c2cc(N)ccc2c2ccc(N)cc21.[I-].[I-] [propidium iodide]	particularly active
CCN(CC)CCCC(C)Nc1c2ccc(Cl)cc2nc2ccc(OC)cc12 (stereo not drawn) [quinacrine hydrochloride]	particularly active
doxorubicin hydrochloride	particularly active

What follows are molecules tested on S. aureus strain S3 (assay: Cell growth assay, first assay (gentamycin potentiation)). Settings: gentamycin alone, sublethal concentration 0.3 μg/mL.
Format: cell-based
Protocol: Cell Growth Assay. This assay measures the ability of cells to grow in the presence of a sublethal dose (i.e., a dose below the MIC) of an antibiotic agent (or test agent, or combination thereof). In general, cells are grown, typically to saturation, and are then diluted and inoculated onto rich medium and onto medium containing a sublethal dose of antibiotic agent. Plates are then grown overnight, and OD600 is measured after overnight growth, as compared with blank plate. If desired, a test agent can be added to the plate, either alone or in combination with the known antibiotic agent, and the ratio of OD600 in the presence of the test agent to OD600 in the absence of the test agent, can be determined. Additional ratios that can be useful as controls include, for example, OD600 in the presence vs. absence of antibiotic agent; OD600 in the absence of any agent vs. in the presence of both antibiotic agent and test agent; etc.
Actinomycin D Potentiates Gentamycin: In the first assay, S. aureus strain S3 was used in a cell growth assay as described in FIG. 4. The strain was grown in the presence and absence of gentamycin and actinomycin D. Various concentrations of gentamycin and actinomycin D were used. Specifically, 40 μL gentamycin stock (5 mg/mL) was first diluted in 360 μL H2O. Then, 200 μL of the diluted gentamycin solution was further mixed with 200 μL H2O. […]

Molecule	growth of S. aureus strain S3
gentamycin	grew equally well
